pIC50: −log10 of the molar value.
System: SW 1271 complex spheroids, viability
Assay: Anticancer human tumor SW 1271 cell line growth inhibition [LSD1];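 further: spheroids exposed to agents for 7 days before luminescence read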;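 on viability, T/C: 100% = DMSO vehicle control viability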
Conditions: for pIC50: curve of first compound; for viability, T/C: stronger effect = lower value
Summary of the method: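 Complex spheroids of tumor cells with HUVEC and human MSCs, exposed to iadademstat combined with other agents. Each agent tested in half-log steps from near clinical Cmax (else 10 microM top), DMSO ≤0.25%.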

[1] = second compound 0.1 µM, first compound 0.0316 µM
[2] = second compound 0.1 µM, first compound 0.1 µM
[3] = second compound 0.1 µM, first compound 0.316 µM
[4] = second compound 0.1 µM, first compound 1 µM
[5] = second compound 0.1 µM, first compound 3.16 µM
[6] = second compound 0.1 µM, first compound 10 µM
[7] = second compound 0.316 µM, first compound 0.0316 µM
[8] = second compound 0.316 µM, first compound 0.1 µM
[9] = second compound 0.316 µM, first compound 0.316 µM
[10] = second compound 0.316 µM, first compound 1 µM
[11] = second compound 0.316 µM, first compound 3.16 µM
[12] = second compound 0.316 µM, first compound 10 µM
[13] = second compound 1 µM, first compound 0.0316 µM
[14] = second compound 1 µM, first compound 0.1 µM
[15] = second compound 1 µM, first compound 0.316 µM
[16] = second compound 1 µM, first compound 1 µM
[17] = second compound 1 µM, first compound 3.16 µM
[18] = second compound 1 µM, first compound 10 µM
[19] = second compound 3.16 µM, first compound 0.0316 µM
[20] = second compound 3.16 µM, first compound 0.1 µM
[21] = second compound 3.16 µM, first compound 0.316 µM
[22] = second compound 3.16 µM, first compound 1 µM
[23] = second compound 3.16 µM, first compound 3.16 µM
[24] = second compound 3.16 µM, first compound 10 µM
[25] = second compound 10 µM, first compound 0.0316 µM
[26] = second compound 10 µM, first compound 0.1 µM
[27] = second compound 10 µM, first compound 0.316 µM
[28] = second compound 10 µM, first compound 1 µM
[29] = second compound 10 µM, first compound 3.16 µM
[30] = second compound 10 µM, first compound 10 µM
[31] = second compound 0.1 µM, first compound 0.00949 µM
[32] = second compound 0.1 µM, first compound 0.03 µM
[33] = second compound 0.1 µM, first compound 0.0949 µM
[34] = second compound 0.1 µM, first compound 0.3 µM
[35] = second compound 0.316 µM, first compound 0.00949 µM
[36] = second compound 0.316 µM, first compound 0.03 µM
[37] = second compound 0.316 µM, first compound 0.0949 µM
[38] = second compound 0.316 µM, first compound 0.3 µM
[39] = second compound 1 µM, first compound 0.00949 µM
[40] = second compound 1 µM, first compound 0.03 µM
[41] = second compound 1 µM, first compound 0.0949 µM
[42] = second compound 1 µM, first compound 0.3 µM
[43] = second compound 3.16 µM, first compound 0.00949 µM
[44] = second compound 3.16 µM, first compound 0.03 µM
[45] = second compound 3.16 µM, first compound 0.0949 µM
[46] = second compound 3.16 µM, first compound 0.3 µM
[47] = second compound 10 µM, first compound 0.00949 µM
[48] = second compound 10 µM, first compound 0.03 µM
[49] = second compound 10 µM, first compound 0.0949 µM
[50] = second compound 10 µM, first compound 0.3 µM

Structure (SMILES): CC1(C)CCC(CN2CCN(c3ccc(C(=O)NS(=O)(=O)c4ccc(NCC5CCOCC5)c([N+](=O)[O-])c4)c(Oc4cnc5[nH]ccc5c4)c3)CC2)=C(c2ccc(Cl)cc2)C1 + NC1CCC(NC2CC2c2ccccc2)CC1
- pIC50 (second compound 0.1 µM): 5.68
- pIC50 (second compound 0.316 µM): 5.69
- pIC50 (second compound 1 µM): 5.69
- pIC50 (second compound 3.16 µM): 5.66
- pIC50 (second compound 10 µM): 5.63
- viability, T/C [1]: 103%
- viability, T/C [2]: 95.6%
- viability, T/C [3]: 94.6%
- viability, T/C [4]: 92.2%
- viability, T/C [5]: 26.9%
- viability, T/C [6]: 0.57%
- viability, T/C [7]: 100%
- viability, T/C [8]: 100%
- viability, T/C [9]: 106%
- viability, T/C [10]: 96.6%
- viability, T/C [11]: 21.6%
- viability, T/C [12]: 0.63%
- viability, T/C [13]: 89.5%
- viability, T/C [14]: 90.5%
- viability, T/C [15]: 99.7%
- viability, T/C [16]: 103%
- viability, T/C [17]: 21.9%
- viability, T/C [18]: 0.38%
- viability, T/C [19]: 96.4%
- viability, T/C [20]: 101%
- viability, T/C [21]: 99%
- viability, T/C [22]: 97.2%
- viability, T/C [23]: 26.9%
- viability, T/C [24]: 0.42%
- viability, T/C [25]: 92.5%
- viability, T/C [26]: 102%
- viability, T/C [27]: 97.8%
- viability, T/C [28]: 95.4%
- viability, T/C [29]: 34.3%
- viability, T/C [30]: 0.66%

Structure (SMILES): CC1COCCN1c1cc(C2(S(C)(=N)=O)CC2)nc(-c2ccnc3[nH]ccc23)n1 (stereo not given) + NC1CCC(NC2CC2c2ccccc2)CC1
- pIC50 (second compound 0.1 µM): < 5.00
- pIC50 (second compound 0.316 µM): 5.06
- pIC50 (second compound 1 µM): < 5.00
- pIC50 (second compound 3.16 µM): 5.04
- pIC50 (second compound 10 µM): 5.48
- viability, T/C [1]: 108%
- viability, T/C [2]: 103%
- viability, T/C [3]: 111%
- viability, T/C [4]: 76.2%
- viability, T/C [5]: 69.1%
- viability, T/C [6]: 58.8%
- viability, T/C [7]: 100%
- viability, T/C [8]: 95.8%
- viability, T/C [9]: 99.1%
- viability, T/C [10]: 81.7%
- viability, T/C [11]: 59.5%
- viability, T/C [12]: 48.3%
- viability, T/C [13]: 94.5%
- viability, T/C [14]: 101%
- viability, T/C [15]: 85.1%
- viability, T/C [16]: 68.2%
- viability, T/C [17]: 72.3%
- viability, T/C [18]: 53.7%
- viability, T/C [19]: 82.9%
- viability, T/C [20]: 88.7%
- viability, T/C [21]: 86.7%
- viability, T/C [22]: 75.9%
- viability, T/C [23]: 73.4%
- viability, T/C [24]: 47.9%
- viability, T/C [25]: 97.4%
- viability, T/C [26]: 92.3%
- viability, T/C [27]: 71.1%
- viability, T/C [28]: 78.4%
- viability, T/C [29]: 50.9%
- viability, T/C [30]: 19.4%

Structure (SMILES): CCN(c1cc(-c2ccc(CN3CCOCC3)cc2)cc(C(=O)NCc2c(C)cc(C)[nH]c2=O)c1C)C1CCOCC1 + NC1CCC(NC2CC2c2ccccc2)CC1
- pIC50 (second compound 0.1 µM): < 5.52
- pIC50 (second compound 0.316 µM): < 5.52
- pIC50 (second compound 1 µM): < 5.52
- pIC50 (second compound 3.16 µM): < 5.52
- pIC50 (second compound 10 µM): < 5.52
- viability, T/C [31]: 98.7%
- viability, T/C [32]: 97%
- viability, T/C [33]: 93.6%
- viability, T/C [34]: 94.8%
- viability, T/C (second compound 0.1 µM, first compound 0.949 µM): 82.5%
- viability, T/C (second compound 0.1 µM, first compound 3 µM): 75%
- viability, T/C [35]: 95%
- viability, T/C [36]: 113%
- viability, T/C [37]: 98.8%
- viability, T/C [38]: 93%
- viability, T/C (second compound 0.316 µM, first compound 0.949 µM): 85.5%
- viability, T/C (second compound 0.316 µM, first compound 3 µM): 67.3%
- viability, T/C [39]: 104%
- viability, T/C [40]: 103%
- viability, T/C [41]: 107%
- viability, T/C [42]: 94.2%
- viability, T/C (second compound 1 µM, first compound 0.949 µM): 71.6%
- viability, T/C (second compound 1 µM, first compound 3 µM): 75.8%
- viability, T/C [43]: 119%
- viability, T/C [44]: 107%
- viability, T/C [45]: 104%
- viability, T/C [46]: 94.6%
- viability, T/C (second compound 3.16 µM, first compound 0.949 µM): 76.5%
- viability, T/C (second compound 3.16 µM, first compound 3 µM): 56.8%
- viability, T/C [47]: 106%
- viability, T/C [48]: 105%
- viability, T/C [49]: 88.7%
- viability, T/C [50]: 95.6%
- viability, T/C (second compound 10 µM, first compound 0.949 µM): 72.9%
- viability, T/C (second compound 10 µM, first compound 3 µM): 66.9%

Structure (SMILES): Cn1ncnc1C1c2n[nH]c(=O)c3cc(F)cc(c23)NC1c1ccc(F)cc1 (stereo not given) + NC1CCC(NC2CC2c2ccccc2)CC1
- pIC50 (second compound 0.1 µM): < 7.00
- pIC50 (second compound 0.316 µM): < 7.00
- pIC50 (second compound 1 µM): < 7.00
- pIC50 (second compound 3.16 µM): < 7.00
- pIC50 (second compound 10 µM): < 7.00
- viability, T/C (second compound 0.1 µM, first compound 0.000316 µM): 93%
- viability, T/C (second compound 0.1 µM, first compound 0.001 µM): 104%
- viability, T/C (second compound 0.1 µM, first compound 0.00316 µM): 88.4%
- viability, T/C (second compound 0.1 µM, first compound 0.01 µM): 94.9%
- viability, T/C [1]: 88.6%
- viability, T/C [2]: 90.4%
- viability, T/C (second compound 0.316 µM, first compound 0.000316 µM): 86.9%
- viability, T/C (second compound 0.316 µM, first compound 0.001 µM): 98.3%
- viability, T/C (second compound 0.316 µM, first compound 0.00316 µM): 103%
- viability, T/C (second compound 0.316 µM, first compound 0.01 µM): 91.8%
- viability, T/C [7]: 82.8%
- viability, T/C [8]: 86.8%
- viability, T/C (second compound 1 µM, first compound 0.000316 µM): 91.7%
- viability, T/C (second compound 1 µM, first compound 0.001 µM): 90.9%
- viability, T/C (second compound 1 µM, first compound 0.00316 µM): 83.5%
- viability, T/C (second compound 1 µM, first compound 0.01 µM): 84.3%
- viability, T/C [13]: 85%
- viability, T/C [14]: 83%
- viability, T/C (second compound 3.16 µM, first compound 0.000316 µM): 83.4%
- viability, T/C (second compound 3.16 µM, first compound 0.001 µM): 87.7%
- viability, T/C (second compound 3.16 µM, first compound 0.00316 µM): 79.9%
- viability, T/C (second compound 3.16 µM, first compound 0.01 µM): 98.1%
- viability, T/C [19]: 76.5%
- viability, T/C [20]: 93.2%
- viability, T/C (second compound 10 µM, first compound 0.000316 µM): 98.6%
- viability, T/C (second compound 10 µM, first compound 0.001 µM): 86.7%
- viability, T/C (second compound 10 µM, first compound 0.00316 µM): 83.5%
- viability, T/C (second compound 10 µM, first compound 0.01 µM): 88.1%
- viability, T/C [25]: 85.3%
- viability, T/C [26]: 81.7%

Structure (SMILES): Nc1ncn(C2CC(O)C(CO)S2)c(=O)n1 (stereo not given) + NC1CCC(NC2CC2c2ccccc2)CC1
- pIC50 (second compound 0.1 µM): < 6.52
- pIC50 (second compound 0.316 µM): < 6.52
- pIC50 (second compound 1 µM): < 6.52
- pIC50 (second compound 3.16 µM): < 6.52
- pIC50 (second compound 10 µM): < 6.52
- viability, T/C (second compound 0.1 µM, first compound 0.000949 µM): 97.4%
- viability, T/C (second compound 0.1 µM, first compound 0.003 µM): 82.8%
- viability, T/C [31]: 92.1%
- viability, T/C [32]: 85.2%
- viability, T/C [33]: 86.9%
- viability, T/C [34]: 82%
- viability, T/C (second compound 0.316 µM, first compound 0.000949 µM): 98.1%
- viability, T/C (second compound 0.316 µM, first compound 0.003 µM): 92%
- viability, T/C [35]: 105%
- viability, T/C [36]: 93.6%
- viability, T/C [37]: 86.7%
- viability, T/C [38]: 82.1%
- viability, T/C (second compound 1 µM, first compound 0.000949 µM): 92.8%
- viability, T/C (second compound 1 µM, first compound 0.003 µM): 84.5%
- viability, T/C [39]: 98.6%
- viability, T/C [40]: 101%
- viability, T/C [41]: 89.2%
- viability, T/C [42]: 72.4%
- viability, T/C (second compound 3.16 µM, first compound 0.000949 µM): 94.8%
- viability, T/C (second compound 3.16 µM, first compound 0.003 µM): 91.7%
- viability, T/C [43]: 77.4%
- viability, T/C [44]: 93.9%
- viability, T/C [45]: 77.7%
- viability, T/C [46]: 82.1%
- viability, T/C (second compound 10 µM, first compound 0.000949 µM): 70.8%
- viability, T/C (second compound 10 µM, first compound 0.003 µM): 84.5%
- viability, T/C [47]: 84.5%
- viability, T/C [48]: 83.9%
- viability, T/C [49]: 83.2%
- viability, T/C [50]: 63.6%

Reference: PubChem BioAssay AID1918941 (Molecular Pharmacology Branch, DTP, NCI, 2023)
